Measured values as given in ChEMBL document CHEMBL2331144, “Synthesis and anticancer activity of analogues of phenstatin, with a phenothiazine A-ring, as a new class of microtubule-targeting agents” (Bioorg Med Chem Lett, 2013).

Experiments:
[1] = tested on: NCI-H460; assay: Growth inhibition of human NCI-H460 cells after 48 hrs by sulforhodamine B assay; assay type: functional; details: NCI-H460, 48 h
[2] = tested on: CCRF-CEM; assay: Growth inhibition of human CCRF-CEM cells after 48 hrs by sulforhodamine B assay; assay type: functional
[3] = tested on: ACHN; assay: Growth inhibition of human ACHN cells after 48 hrs by sulforhodamine B assay; assay type: functional
[4] = tested on: UACC-62; assay: Growth inhibition of human UACC62 cells after 48 hrs by sulforhodamine B assay; assay type: functional; details: UACC-62, 48 h
[5] = tested on: COLO 205; assay: Growth inhibition of human COLO205 cells after 48 hrs by sulforhodamine B assay; assay type: functional; details: COLO 205, 48 h
[6] = tested on: SW-620; assay: Growth inhibition of human SW620 cells after 48 hrs by sulforhodamine B assay; assay type: functional; details: SW-620, 48 h
[7] = tested on: UACC-257; assay: Growth inhibition of human UACC257 cells after 48 hrs by sulforhodamine B assay; assay type: functional; details: UACC-257, 48 h
[8] = tested on: SK-MEL-2; assay: Growth inhibition of human SK-MEL-2 cells after 48 hrs by sulforhodamine B assay; assay type: functional; details: SK-MEL-2, 48 h
[9] = tested on: SN12C; assay: Growth inhibition of human SN12C cells after 48 hrs by sulforhodamine B assay; assay type: functional
[10] = tested on: MDA-MB-435; assay: Growth inhibition of human MDA-MB-435 cells after 48 hrs by sulforhodamine B assay; assay type: functional; details: MDA-MB-435, 48 h
[11] = tested on: NCI-H522; assay: Growth inhibition of human NCI-H522 cells after 48 hrs by sulforhodamine B assay; assay type: functional; details: NCI-H522, 48 h
[12] = tested on: SK-MEL-28; assay: Growth inhibition of human SK-MEL-28 cells after 48 hrs by sulforhodamine B assay; assay type: functional; details: SK-MEL-28, 48 h
[13] = tested on: IGROV-1; assay: Growth inhibition of human IGROV1 cells after 48 hrs by sulforhodamine B assay; assay type: functional; details: IGROV-1, 48 h
[14] = tested on: 786-0; assay: Growth inhibition of human 786-0 cells after 48 hrs by sulforhodamine B assay; assay type: functional; details: 786-0, 48 h
[15] = tested on: K562; assay: Growth inhibition of human K562 cells after 48 hrs by sulforhodamine B assay; assay type: functional; details: K562, 48 h
[16] = tested on: RPMI-8226; assay: Growth inhibition of human RPMI8226 cells after 48 hrs by sulforhodamine B assay; assay type: functional; details: RPMI-8226, 48 h
[17] = tested on: SR; assay: Growth inhibition of human SR cells after 48 hrs by sulforhodamine B assay; assay type: functional
[18] = tested on: NCI-H23; assay: Growth inhibition of human NCI-H23 cells after 48 hrs by sulforhodamine B assay; assay type: functional; details: NCI-H23, 48 h
[19] = tested on: LOX IMVI; assay: Growth inhibition of human LOXIMVI cells after 48 hrs by sulforhodamine B assay; assay type: functional
[20] = tested on: UO-31; assay: Growth inhibition of human UO31 cells after 48 hrs by sulforhodamine B assay; assay type: functional; details: UO-31, 48 h
[21] = tested on: DU-145; assay: Growth inhibition of human DU145 cells after 48 hrs by sulforhodamine B assay; assay type: functional; details: DU-145, 48 h
[22] = tested on: OVCAR-3; assay: Growth inhibition of human OVCAR3 cells after 48 hrs by sulforhodamine B assay; assay type: functional; details: OVCAR-3, 48 h
[23] = tested on: SK-MEL-5; assay: Growth inhibition of human SK-MEL-5 cells after 48 hrs by sulforhodamine B assay; assay type: functional; details: SK-MEL-5, 48 h
[24] = tested on: A549; assay: Growth inhibition of human A549/ATCC cells after 48 hrs by sulforhodamine B assay; assay type: functional; details: A549, 48 h
[25] = Growth inhibition of human Hs 578T cells after 48 hrs by sulforhodamine B assay; assay type: functional
[26] = tested on: PC-3; assay: Growth inhibition of human PC3 cells after 48 hrs by sulforhodamine B assay; assay type: functional; details: PC-3, 48 h
[27] = species on record: Ovis aries; assay: Inhibition of sheep brain tubulin polymerization at 100 uM using DAPI by fluorimetry
[28] = tested on: MDA-MB-468; assay: Growth inhibition of human MDA-MB-468 cells after 48 hrs by sulforhodamine B assay; assay type: functional; details: MDA-MB-468, 48 h
[29] = tested on: HCT-15; assay: Growth inhibition of human HCT15 cells after 48 hrs by sulforhodamine B assay; assay type: functional; details: HCT-15, 48 h
[30] = tested on: M14; assay: Growth inhibition of human M14 cells after 48 hrs by sulforhodamine B assay; assay type: functional; details: M14, 48 h
[31] = tested on: RXF 393; assay: Growth inhibition of human RXF393 cells after 48 hrs by sulforhodamine B assay; assay type: functional; details: RXF 393, 48 h
[32] = tested on: TK-10; assay: Growth inhibition of human TK10 cells after 48 hrs by sulforhodamine B assay; assay type: functional; details: TK-10, 48 h
[33] = tested on: BT-549; assay: Growth inhibition of human BT549 cells after 48 hrs by sulforhodamine B assay; assay type: functional; details: BT-549, 48 h
[34] = tested on: HOP-92; assay: Growth inhibition of human HOP92 cells after 48 hrs by sulforhodamine B assay; assay type: functional; details: HOP-92, 48 h
[35] = tested on: HOP-62; assay: Growth inhibition of human HOP62 cells after 48 hrs by sulforhodamine B assay; assay type: functional; details: HOP-62, 48 h
[36] = tested on: KM12; assay: Growth inhibition of human KM12 cells after 48 hrs by sulforhodamine B assay; assay type: functional; details: KM12, 48 h
[37] = Growth inhibition of human NCI-ADR-RES cells after 48 hrs by sulforhodamine B assay; assay type: functional
[38] = tested on: OVCAR-5; assay: Growth inhibition of human OVCAR5 cells after 48 hrs by sulforhodamine B assay; assay type: functional; details: OVCAR-5, 48 h
[39] = tested on: MDA-MB-231; assay: Growth inhibition of human MDA-MB-231 cells after 48 hrs by sulforhodamine B assay; assay type: functional; details: MDA-MB-231, 48 h
[40] = Growth inhibition of human HCC2998 cells after 48 hrs by sulforhodamine B assay; assay type: functional; details: HCC 2998, 48 h
[41] = tested on: Malme-3M; assay: Growth inhibition of human MALME-3M cells after 48 hrs by sulforhodamine B assay; assay type: functional
[42] = tested on: SF-539; assay: Growth inhibition of human SF539 cells after 48 hrs by sulforhodamine B assay; assay type: functional; details: SF-539, 48 h
[43] = tested on: SNB-75; assay: Growth inhibition of human SNB75 cells after 48 hrs by sulforhodamine B assay; assay type: functional; details: SNB-75, 48 h
[44] = tested on: SF-268; assay: Growth inhibition of human SF268 cells after 48 hrs by sulforhodamine B assay; assay type: functional; details: SF-268, 48 h
[45] = tested on: HL-60(TB); assay: Growth inhibition of human HL-60(TB) cells after 48 hrs by sulforhodamine B assay; assay type: functional; details: HL-60, 48 h
[46] = tested on: HCT-116; assay: Growth inhibition of human HCT116 cells after 48 hrs by sulforhodamine B assay; assay type: functional; details: HCT-116, 48 h
[47] = tested on: OVCAR-4; assay: Growth inhibition of human OVCAR4 cells after 48 hrs by sulforhodamine B assay; assay type: functional; details: OVCAR-4, 48 h
[48] = tested on: MCF7; assay: Growth inhibition of human MCF7 cells after 48 hrs by sulforhodamine B assay; assay type: functional; details: MCF7, 48 h
[49] = tested on: SF-295; assay: Growth inhibition of human SF295 cells after 48 hrs by sulforhodamine B assay; assay type: functional; details: SF-295, 48 h
[50] = tested on: T47D; assay: Growth inhibition of human T47D cells after 48 hrs by sulforhodamine B assay; assay type: functional
[51] = tested on: A498; assay: Growth inhibition of human A498 cells after 48 hrs by sulforhodamine B assay; assay type: functional; details: A498, 48 h
[52] = tested on: MOLT-4; assay: Growth inhibition of human MOLT4 cells after 48 hrs by sulforhodamine B assay; assay type: functional; details: MOLT-4, 48 h
[53] = tested on: HT-29; assay: Growth inhibition of human HT-29 cells after 48 hrs by sulforhodamine B assay; assay type: functional; details: HT-29, 48 h
[54] = tested on: OVCAR-8; assay: Growth inhibition of human OVCAR8 cells after 48 hrs by sulforhodamine B assay; assay type: functional; details: OVCAR-8, 48 h
[55] = tested on: CAKI-1; assay: Growth inhibition of human CAKI-1 cells after 48 hrs by sulforhodamine B assay; assay type: functional; details: CAKI-1, 48 h
[56] = tested on: SK-OV-3; assay: Growth inhibition of human SKOV3 cells after 48 hrs by sulforhodamine B assay; assay type: functional; details: SK-OV-3, 48 h

CCOc1ccc(C(=O)N2c3ccccc3Sc3ccccc32)cc1Cl
GI50 [1]: 0.368 µM | GI50 [2]: 0.361 µM | GI50 [3]: 0.447 µM | GI50 [4]: 0.451 µM | GI50 [5]: 0.354 µM | GI50 [6]: 0.349 µM | GI50 [7]: 0.564 µM | GI50 [8]: 0.395 µM | GI50 [9]: 0.777 µM | GI50 [10]: 0.095 µM | GI50 [11]: 0.221 µM | GI50 [12]: 0.817 µM | GI50 [13]: 1.02 µM | GI50 [14]: 0.481 µM | GI50 [15]: 0.277 µM | GI50 [16]: 0.424 µM | GI50 [17]: 0.142 µM | GI50 [18]: 0.999 µM | GI50 [19]: 0.75 µM | GI50 [20]: 0.52 µM | GI50 [21]: 0.476 µM | GI50 [22]: 0.231 µM | GI50 [23]: 0.333 µM | GI50 [24]: 0.62 µM | GI50 [25]: 0.573 µM | GI50 [26]: 0.39 µM | inhibition [27]: 48% | GI50 [28]: 0.257 µM | GI50 [29]: 0.373 µM | GI50 [30]: 0.373 µM | GI50 [31]: 0.236 µM | GI50 [32]: 0.857 µM | GI50 [33]: 0.613 µM | GI50 [34]: 0.272 µM | GI50 [35]: 0.512 µM | GI50 [36]: 0.426 µM | GI50 [37]: 0.376 µM | GI50 [38]: 0.527 µM | GI50 [39]: 0.531 µM | GI50 [40]: 2.7 µM | GI50 [41]: 0.446 µM | GI50 [42]: 0.239 µM | GI50 [43]: 0.283 µM | GI50 [44]: 1.76 µM | GI50 [45]: 0.315 µM | GI50 [46]: 0.457 µM | GI50 [47]: 3.75 µM | GI50 [48]: 0.419 µM | GI50 [49]: 0.254 µM | GI50 [50]: 0.466 µM | GI50 [51]: 0.21 µM | GI50 [52]: 0.408 µM | GI50 [53]: 0.32 µM | GI50 [54]: 0.596 µM | GI50 [55]: 0.457 µM | GI50 [56]: 0.623 µM

CN(C)Cc1cn(C(=O)N2c3ccccc3Sc3ccccc32)c2ccccc12
GI50 [1]: 1.81 µM | GI50 [2]: 2 µM | GI50 [3]: 1.5 µM | GI50 [4]: 1.72 µM | GI50 [5]: 1.85 µM | GI50 [6]: 1.84 µM | GI50 [7]: 1.6 µM | GI50 [8]: 2.23 µM | GI50 [9]: 1.98 µM | GI50 [10]: 1.74 µM | GI50 [11]: 1.9 µM | GI50 [12]: 1.72 µM | GI50 [13]: 1.73 µM | GI50 [14]: 1.75 µM | GI50 [15]: 1.95 µM | GI50 [16]: 1.84 µM | GI50 [17]: 1.76 µM | GI50 [18]: 4.85 µM | GI50 [19]: 1.8 µM | GI50 [20]: 1.61 µM | GI50 [21]: 1.98 µM | GI50 [22]: 1.95 µM | GI50 [23]: 1.6 µM | GI50 [24]: 1.68 µM | GI50 [25]: 2.08 µM | GI50 [26]: 1.62 µM | inhibition [27]: 9% | GI50 [28]: 1.16 µM | GI50 [29]: 1.7 µM | GI50 [30]: 1.97 µM | GI50 [31]: 1.21 µM | GI50 [32]: 1.73 µM | GI50 [33]: 2.96 µM | GI50 [35]: 1.68 µM | GI50 [36]: 1.89 µM | GI50 [37]: 2.53 µM | GI50 [38]: 1.5 µM | GI50 [39]: 1.17 µM | GI50 [40]: 1.85 µM | GI50 [41]: 1.99 µM | GI50 [42]: 1.64 µM | GI50 [43]: 1.65 µM | GI50 [44]: 2.92 µM | GI50 [45]: 2.22 µM | GI50 [46]: 1.74 µM | GI50 [47]: 2.04 µM | GI50 [48]: 1.79 µM | GI50 [49]: 1.75 µM | GI50 [50]: 2.04 µM | GI50 [51]: 1.24 µM | GI50 [52]: 2.13 µM | GI50 [53]: 1.79 µM | GI50 [54]: 1.78 µM | GI50 [55]: 1.53 µM | GI50 [56]: 2.02 µM
